Measurements published in patent US20250152580A1, “METHODS FOR TREATING IMMUNE DISEASES” (Ascentage Pharma (Suzhou) co., Ltd., priority 2022, published 2025).
“Also recorded” adds a separate entry of the source.

Assays:
OXA induced DTH model = experiment: OXA induced delayed type hypersensitivity (DTH) model in Balb/c mice; assay type: in vivo
Source text: A delayed-type hypersensitivity (DTH) reaction is an expression of cell-mediated immunity and plays a major role in the pathology and chronicity of many inflammatory disorders. Delayed-type hypersensitivity (DTH) reactions can be induced by allergens, including oxazolone.
Female Balb/c mice (6-8 weeks old) were obtained from Shanghai Jihui Experiment Animal Feeding Co. Ltd. Animals were housed and handled in a temperature-controlled environment with a 12-h light/12-h dark cycle. A total of 48 mice were assigned to 6 groups by randomization based on body weight.
To induce DTH, all right ears of mice except the G1 sham control group were applied with oxazolone (OXA). Briefly, skin inflammation was induced by topical administration with 100 μL of 1.5% OXA dissolved in acetone/olive oil on day 1 and repeated 20 μL of 1% OXA on day 6. G1 sham control group was treated same volume of vehicles. Therapeutic group of 100 mg/kg Cpd. 4 (po, 0 h/6 h after challenge on day 6) or 0.05 mg/ear dexamethasone (topical, 1 h/6 h after challenge on day 6) were applied to the mice. […]
Ear thickness were measured with a micrometer before challenge on day 6 and 24 h after oxazolone challenge on Day 7 and reported as the mean change in ear thickness. […]

[1] = test system: IL-23 induced psoriasis model; experiment: IL-23 induced psoriasis model in C57BL/6 mice; assay type: in vivo; details: Cpd. 4 30 mg/kg po qd day 1-14, compared with Vehicle (0.44 mm day 14)
Source text: IL-23 stimulates and promotes differentiation of Th17 cells. IL-23 is a heterodimeric cytokine with two subunits. It drives the Th17 response by its binding and signaling through its receptor subunits. When the IL-23R is activated, it promotes the development of Th17 cells and the resulting production of cytokines such as IL-17A, IL-17F, and IL-22, all which are involved in mediating psoriasiform changes.
C57BL/6 mice (7-8 weeks old) were obtained from Vital River Laboratory Animal Technology Co., Ltd. Animals were housed and handled in a temperature-controlled environment with a 12-h light/12-h dark cycle. A total of 40 mice were assigned to 4 groups by randomization based on body weight.
The first day of IL-23 injection is considered as Day 1. Intradermal injection of 20 μL PBS containing 500 ng recombinant mouse IL-23 into the right ear of anesthetized mice using a 30-gauge needle every other day for 14 days (Day 1, Day 3, Day 5, Day 7, Day 9, Day 11, Day 13), 7 times in total. The G1 normal control group intradermal injected with 20 μL PBS.
Mice in Group 1 and Group 2 were treated with vehicle for 14 days (po, qd, from day 1 to day 14). Mice in Group 3 were treated with 30 mg/kg Cpd. 4 for 14 days (po, qd, from day 1 to day 14). […]
Ear thickness of mice was measured in Day 1, 3, 5, 7, 9, 11, 13 and Day 14. […]

O=C(NS(=O)(=O)c1ccc(NC[C@H]2COCCO2)c([N+](=O)[O-])c1)c1ccc(N2CCN(CC3=C(c4ccc(Cl)cc4)CC4(CCC4)CC3)CC2)cc1Oc1cnc2[nH]ccc2c1 [Cpd. 4, (S)-N-((4-(((1,4-dioxan-2-yl)methyl)amino)-3-nitrophenyl)sulfonyl)-2-((1H-pyrrolo[2,3-b]pyridin-5-yl)oxy)-4-(4-((6-(4-chlorophenyl)spiro[3.5]non-6-en-7-yl)methyl)piperazin-1-yl)benzamide]
increase of ear thickness (day 7 − day 6) (OXA induced DTH model; 100 mg/kg po 0 h/6 h after challenge on day 6, vehicle 0.24±0.01 mm): 0.22±0.03 mm
increase of ear thickness (in words) (OXA induced DTH model; Cpd. 4 100 mg/kg po, dexamethasone 0.05 mg/ear topical 1 h/6 h after challenge on day 6): moderately reduced
ear thickness [1]: significantly reducing the ear thickness; also recorded: significantly reduced
